The results in this text go back to patent publication US20230190883A1, “STABLE PEPTIDES HAVING RENALASE AGONIST ACTIVITY” (Bessor Pharma, LLC, priority 2020, published 2023).

Assay [1] deals with carrageenan-induced Paw edema. The assay is described as follows: carrageenan-induced paw edema (CPE) model in mice. In kind it is in vivo, CD-1 mice. The settings on record: for activity at 2 hours: 2 hours after carrageenan. From the text: This test is a rapid in vivo model for evaluation of anti-inflammatory efficacy of test articles. The CPE model in mice quantitativdy assesses inhibition of edema enduced by subplantarinjection of carrageenan. […] Carrageenan-induced inflammation invoves extravasation of polymorphonuclear leukocytes from circulation to the site of inflammation. The subsequent release of myeloperoxidase and other cytokines within the interstitial tissues results in plasma exudation into the site of inflammation. The increased paw volume is measured by water displacement. Anti-inflammatory drugs reduce the paw edema.
• 1. Receive (SOP 1910, SOP 1920) and quarantine (SOP 560) 125 CD-1 mice (Charles River Laboratories, male, 5-6 weeks old). • 2. Animals are ear tagged (SOP 810), weighed, and sorted into 9 groups with 10 animals/group and 5 groups of 7 animals/group based upon average body weight. • 3. Prepare 3% carrageenan solution: • 1) Preparation at least 2 weeks in advance of use. • 2) Weigh out 600 mg A-carrageenan into a glass beaker. • 3) Add 20 ml deionized water. • 4) Stir on mild heat until carrageenan fully dissolved. • 5) Cool solution to ambient temperature. • 6) Store at 4-8° C. • 4. Until the day of use the renalase peptides are stored at -20° C. as dry powder. • 5. DAY 0 • a. Prepare test material in sterile saline (vehicle). • b. On the day of dosing, renalase peptides are dissolved. • c. On day prior to administration check carrageenan solution for clarity (no visible evidence of contamination). • 1) Equilibrate carrageenan to ambient temperature. • d. Record mouse weights in laboratory notebook. • e. Measure and record paw initial paw volumes: • 1) Place beaker of water on balance and tare to zero. • 2) Place right hind limb in the beaker of water on the scale with the top of the hock centered in the meniscus of the water. Record read-out on the scale. • 3) The foot must be dried after each measurement as wet feet will change the readout. • 4) Re-tare the scale between measurements to account for decrease in water volume. • f. […]
The test was also conducted to compare the inhibition of inflammation by peptide 10 as compared to the corresponding peptide fragment without the alanine substitution at position 220 (peptide 81).
(In general: Carrageenan injected into the paw causes an acute inflammation.)

Assay [2] deals with cisplatin induced kidney injury. Description: cisplatin-induced kidney injury in vivo. From the text:
A key measure of this toxicity is a decrease in kidney mass; this is limited when Renalase A (205-240)-OH is given. More dramatic is the effect of peptide on the reduced renal function seen with cisplatin induced renal injury.

The subject of assay [3] is cerulin-induced severe pancreatitis. Description: cerulin-induced severe pancreatitis model. Particulars: FIG. 13. In kind it is in vivo.
For assay [4], the system named is renal ischemia reperfusion injury. The assay is described as follows: renal ischemia reperfusion injury, preclinical murine model. In kind it is in vivo.
Assay [5] has as its system cultured proximal renal tubule cell line. Description: cisplatin-induced injury of cultured kidney cells. It is filed as cell-based. From the text: We have shown that a peptide of the invention [Ala^220]-Ac-Renalase A (205-240)-NH2 eliminated cisplatin-induced injury of cultured kidney cells. […] Data are shown below for such RNLS agonists
Another assay relates to acute pancreatitis. Description: experimental acute pancreatitis (AP), mouse model. In kind it is in vivo. From the text: This likely represents inhibition of inflammatory pathways central to AP pathogenesis; a probable target is inflammatory activation (FIG. 5). Since most patients with AP present long after disease onset and later onset responses are most important in determining AP severity, the beneficial effects of peptide 10 should be therapeutically valuable even late in the course of disease. In this context we have shown that RNLS agonists reduce injury when given 2 hrs after the onset of cerulein AP and 12hrs after the induction of arginine AP.

Another assay concerns COVID-19 mouse model. Description: COVID-19 mouse model, survival. The settings on record: FIG. 11.
In a further assay the test system is severe viral infection. Description: model of severe viral infection in renalase-deficient mice. Particulars: FIG. 12.
In assay [6] the test system is blood from healthy donors. In kind it is cell-based.
The subject of a further assay is cronin 1. Description: levels of cronin 1, marker for inflammatory cells. Particulars: FIG. 14.
The mark [7] stands for this setting: 10 mpk, * = statistical significance.
Setting [8] is: peptide at 50 ug/ml, 3 hrs incubation, ELISA, p<0.01.

Marks after values point to notes of the source that are not given here.

For the compound `C[C@@H]1C[C@H]2[C@@H]3CCC4=CC(=O)C=C[C@]4(C)[C@@]3(F)[C@@H](O)C[C@]2(C)[C@@]1(O)C(=O)CO` [Dexamethasone, reference compound], the “percent change from control, paw edema, 2 hr after carrageenan” value (from here on “percent change … 2 hr after carrageenan”) in assay [1] (setting [7]) is on record as 51.2* percent. For the same compound, in assay [1] (10 mpk), the “percent change from control, paw edema, 4 hr after carrageenan” value (from here on “percent change … 4 hr after carrageenan”) is on record as 49.7* percent and the “percent change from control, paw edema, 10 hr after carrageenan” value (from here on “percent change … 10 hr after carrageenan”) is 55.6* percent.
For `COc1ccc2c(c1)c(CC(=O)O)c(C)n2C(=O)c1ccc(Cl)cc1` [Indomethacin, reference compound], in assay [1] (5 mpk), the “percent change … 2 hr after carrageenan” value is 79.4* percent; the “percent change … 4 hr after carrageenan” value was 60.3* percent; the “percent change from control, paw edema, 6 hr after carrageenan” value (shortened to “percent change … 6 hr after carrageenan”) is 42.4* percent; the “percent change … 10 hr after carrageenan” value amounted to 21.3%.
Consider Renalase A (205-240)-OH [Peptide 81], for which the plasma creatinine levels entry in assay [2] (17 days of cisplatin treatment (4-fold increase without agonist), FIG. 4 right panel) is listed as “reduced this toward the normal range”. Further, the “kidney injury after cisplatin-induced treatment” value in [2] (FIG. 4) is given as “reduces kidney injury”. Moreover, the “decrease in kidney mass” value in assay [2] (cisplatin toxicity, FIG. 4) was “limited”. In assay [1] (3 mpk), the “percent change … 2 hr after carrageenan” value is 14.2%; the “percent change … 4 hr after carrageenan” value stood at 1.6%; the “percent change … 6 hr after carrageenan” value was −13.1%; the “percent change … 10 hr after carrageenan” value is 2.4%. Also, the “percent change … 2 hr after carrageenan” value in [1] (setting [7]) is on record as 62.6* percent. Further, in assay [1] (10 mpk), the “percent change … 4 hr after carrageenan” value is on record as 0.5%; the “percent change … 6 hr after carrageenan” value turned out to be 2.9%; the “percent change … 10 hr after carrageenan” value is given as 13.3%. For the same compound, the “activity at 2 hours” value in assay [1] is reported as “active”.
Take “[Ala^220]-Ac-Renalase A (205-240)-NH2 (KIDVPWAGQYITSNPAIRFVSIDNKKRNIESSEIGP; N-acetyl, C-terminal amide; Based on homo sapiens sequence) [peptide 10]”: in assay [3], the necrosis result is “effective in reducing necrosis”. Moreover, the “renal ischemia reperfusion injury” value in [4] is “reduced”. Further, the “cisplatin-induced injury of cultured kidney cells” value in assay [5] is reported as “eliminated”. In assay [5] (FIG. 3), the “injury in a cultured proximal renal tubule cell line” value is “reduces injury”. In addition, the “anti-inflammatory effect on paw edema” value in [1] (0.3-30 mg/kg SC 30 min prior to carrageenan, test period of 10 hours, FIGS. 6 and 7) is “has an anti-inflammatory effect”. Besides, in assay [1], the “activity at 2 hours” value is “active”. In [1] (comparable but different experiments, same protocols), the “activity and duration of activity compared with peptide 81” value is “more active and longer active than peptide 81”. The “activity for longer periods of time” value in assay [1] (later than 2 hours) is listed as “only peptide 10 was active”. In addition, the “activity compared with standards” value in [1] (versus dexamethasone and indomethacin) was “activity more in line with standards dexamethasone and indomethacin”. For the same compound, in the assay on acute pancreatitis (FIG. 2), the “injury in acute pancreatitis” value was “reduces injury”. Also, in the assay with acute pancreatitis (earliest responses, not shown), the “earliest AP responses (acinar cell related)” value is given as “no effects”. For the same compound, in the assay with acute pancreatitis (later responses (6 hrs), FIG. 2A), the “levels of active trypsin” value is reported as “tended to reduce”. Besides, the tissue neutrophils result in the assay on acute pancreatitis (later responses (6 hrs), FIG. 2B) was “dramatically decrease”. Further, the “mitochondrial injury as determined by OPA-1 and Parkin levels” value with acute pancreatitis (later responses (6 hrs), FIG. 2C, D) is given as “reduced”. Besides, in the assay with COVID-19 mouse model, the survival entry was “improves survival”. The “protection in severe viral infection” value in the assay with severe viral infection was “protects”. In addition, the “inflammatory response to SARS-CoV-2 peptides” value in [6] (FIG. 5) was “decreases”. Moreover, in [6] (setting [8]), the “SARS-CoV-2-peptide induced increase of IL1-beta” value is on record as “inhibited”, the “SARS-CoV-2-peptide induced increase of IL6” value is “inhibited” and the “SARS-CoV-2-peptide induced increase of TNF-alpha” value is recorded as “inhibited”. Moreover, the “SARS-CoV-2 peptide S and M induced levels of interferon-gamma” value in [6] (peptide at 50 ug/ml, SARS-CoV-2 peptides 0.19 nM, 3 hrs incubation, ELISA) is recorded as “dramatically decreased”. In the assay with cronin 1, the “levels of cronin 1” value was “decreases”.
